Results from patent publication US20070141636A1 (priority 2003, published 2007).
“Also recorded” adds a separate entry of the source. Read-outs that look alike come from different tables or passages of the source.

Key:
[1] = system: LnCap cells; details: LnCap AR with residue 877 threonine to alanine mutation; cited from earlier work
[2] = target: T1, LnCap AR (residue 877 threonine to alanine) (Homo sapiens, UniProt P10275, T878A); details: LnCap AR expression vector; cited from earlier work
T1 sequence (P10275 1-920 T878A): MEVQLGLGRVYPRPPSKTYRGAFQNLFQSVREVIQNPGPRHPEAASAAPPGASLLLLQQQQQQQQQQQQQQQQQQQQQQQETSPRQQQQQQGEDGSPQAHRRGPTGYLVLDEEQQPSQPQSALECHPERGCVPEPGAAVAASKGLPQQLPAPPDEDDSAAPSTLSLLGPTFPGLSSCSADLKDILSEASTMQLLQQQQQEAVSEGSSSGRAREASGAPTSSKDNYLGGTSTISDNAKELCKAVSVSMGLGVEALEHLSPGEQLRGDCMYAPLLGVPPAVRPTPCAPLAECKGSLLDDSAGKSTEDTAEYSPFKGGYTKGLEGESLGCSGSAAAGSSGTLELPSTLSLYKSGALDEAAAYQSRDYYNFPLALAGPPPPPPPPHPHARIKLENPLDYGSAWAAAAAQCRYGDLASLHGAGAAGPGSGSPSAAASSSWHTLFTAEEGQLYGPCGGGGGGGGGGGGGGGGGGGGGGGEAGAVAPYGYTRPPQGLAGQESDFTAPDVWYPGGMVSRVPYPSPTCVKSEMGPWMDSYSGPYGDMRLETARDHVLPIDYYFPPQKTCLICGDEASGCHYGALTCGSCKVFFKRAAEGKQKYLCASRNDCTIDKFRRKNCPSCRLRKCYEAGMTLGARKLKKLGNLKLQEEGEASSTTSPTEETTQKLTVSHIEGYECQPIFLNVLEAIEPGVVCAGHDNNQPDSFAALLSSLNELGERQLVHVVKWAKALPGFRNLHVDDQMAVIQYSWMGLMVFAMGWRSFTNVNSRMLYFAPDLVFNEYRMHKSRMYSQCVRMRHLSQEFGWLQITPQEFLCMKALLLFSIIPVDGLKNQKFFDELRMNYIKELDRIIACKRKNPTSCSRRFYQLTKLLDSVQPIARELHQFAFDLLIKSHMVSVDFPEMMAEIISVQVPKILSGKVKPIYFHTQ

[3] = system: LnCap cells; format: cell-based, human
[4] = system: LnCap cells; format: cell-based, human; remark: listed apart in the source
[5] = target: T2, rhARLBD (ligand binding domain of the rhesus monkey AR) (Macaca mulatta, UniProt Q6QT55); assay: Hydroxyapatite (HAP)-based 3H-R1881 displacement binding assay using rhARLBD expressed in yeast
T2 construct: includes amino acids 601 to 895 of the rhesus monkey AR; made in house; host or cells: yeast (pESP-1 vector, Stratagene)
T2 sequence (Q6QT55 601-895): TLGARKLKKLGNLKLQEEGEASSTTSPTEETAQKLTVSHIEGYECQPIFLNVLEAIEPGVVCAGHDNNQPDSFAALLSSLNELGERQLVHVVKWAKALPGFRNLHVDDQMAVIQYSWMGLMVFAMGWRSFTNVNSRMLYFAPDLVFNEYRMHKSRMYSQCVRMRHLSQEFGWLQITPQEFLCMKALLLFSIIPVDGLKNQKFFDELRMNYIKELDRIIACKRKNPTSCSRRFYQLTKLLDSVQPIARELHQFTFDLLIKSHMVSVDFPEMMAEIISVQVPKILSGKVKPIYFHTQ
Source text: The screening assays were set up to use the ARLBD from Macaca mulatta (rhesus monkey; herein after rhARLBD) expressed in yeast. […] A medium to high throughput AR binding assay for screening analyte libraries and characterizing various analytes therein was also developed.
Cloning the full length rhesus monkey AR from rhesus monkey prostrate mRNA and subsequent subcloning of the rhARLBD was done as described in WO02090529 to Towler and Chen. Briefly, the rhARLBD was PCR amplified from the full rhesus monkey AR and inserted in frame with GST at a SmaI site of the pESP-1 clone. This placed the rhARLBD downstream of the GST-flag tag.
Cell lysates comprising the rhARLBD were prepared as follows. GST-Flag-rhARLBD (Mr=60 kDa) fusion protein was expressed in yeast using the pESP-1 vector (Stratagene, La Jolla, Calif.) according to the manufacturer's protocol. After a sufficient time to express the GST-Flag-rhARLBD the yeast were centrifuged and the yeast pellet resuspended in TGEM/DTT/PI buffer (10 mM Tris-HCl, pH 7.4, 1 mM EDTA, 10% glycerol, 10 mM molybdate, 2 mM dithiothreitol (DTT), 50 μL yeast protease inhibitor cocktail (PI, Sigma Chemicals, St. Louis, Mo.) per gram of yeast and 1/10×^th volume of PI complete (PI: Boehringer-Mannheim, Roche Applied Science, Indianapolis, Ind.) per gram of yeast. The yeast cells were lysed by vortexing in the presence of glass beads in cold TGEM/DTT/PI buffer. The cell debris was centrifuged at 10,000×g for 20 minutes at 4° C. The clear supernatant fraction containing the rhARLBD was the lysate used for the assays. Usually, about 25 to 50 μL of lysate as determined by titration was used per assay. In some cases, the rhARLBD fusion protein was purified from the lysate using a batch purification method using anti-Flag M2 affinity gel (Sigma) in TEGM/DTT buffer. The rhARLBD fusion protein was eluted using TEGM/DTT buffer containing 100 μg/mL Flag peptide.
Hydroxyapatite (HAP)-based binding assays were performed as follows: For the hydroxyapatite assays, the amount of lysate used was based on titration using ^3H-ligand at concentration about the Kd value of the ligand to the corresponding receptor. In general, the assay was carried at in 150 μL of TEGM buffer. […] The samples were vortexed and incubated on ice for about 10 minutes. […] The washing process transfers the HAP pellets containing ligand-bound-expressed receptor to [sequence]-96 GF/B (Packard Instruments Co.) which has been prewetted in 0.5% polyethylimine. The HAP pellets on the filter plates were incubated with 50 μL of MICROSCINT (Packard Instruments Co.) for 2 hours before counted on the TOPCOUNT (Packard Instruments Co.). […] The binding reactions were incubated for about 18 hours at 4° C. and process as above).

SMILES | stimulation of LnCap cell growth through the AR [1] | antagonist activity on PSA production in LnCap cells (antagonist mode) [3] | agonist activity, PSA production in LnCap cells (agonist mode) [4] | also measured
CC(C)(O)C(=O)Nc1ccc([N+](=O)[O-])c(C(F)(F)F)c1 [hydroxyflutamide] | able to stimulate cell growth | – | – | effect on the androgen promoter in receptor/reporter cotransfection [2]: agonist effect
C[C@]12CCC(=O)C[C@@H]1CC[C@@H]1[C@@H]2CC[C@]2(C)[C@@H](O)CC[C@@H]12 [DHT, 5-α-dihydrotestosterone] | – | full agonist activity | full agonist activity; also recorded: had agonist activity | –
CC(=O)[C@H]1CC[C@H]2[C@@H]3CCC4=CC(=O)CC[C@]4(C)[C@H]3CC[C@]12C [progesterone] | able to stimulate cell growth | – | – | –
C[C@]12CC[C@H]3[C@@H](CCC4=C[C@@H](O)CC[C@@]43C)[C@@H]1CC[C@@H]2O [4-androstene-3β,17β-diol] | – | antagonist activity; also recorded: antagonized the agonist activity of DHT and R1881 | had agonist activity | –
C[C@]1(O)CC[C@H]2[C@@H]3CCC4=CC(=O)CCC4=C3C=C[C@@]21C [R1881, 17 β-hydroxy-17-methyl-estra-4,9,11-trien-3-one] | – | does not antagonize | slightly less potent than DHT; also recorded: had agonist activity | IC50 [5]: ~1 nM; binding affinity to rhARLBD compared to full-length human AR [5]: same binding affinity; also recorded: no significant shift
C[C@]12CCC(=O)C=C1CC[C@@H]1[C@@H]2CC[C@]2(C)C(=O)CC[C@@H]12 [4-androstene-3,17β-dione] | – | antagonist activity; also recorded: antagonized the agonist activity of DHT and R1881 | had agonist activity | binding affinity to rhARLBD compared to full-length human AR ([5]; comparison of IC50s, rhARLBD (yeast lysate) vs full-length human AR (mdaAR), FIGS. 2A-2D, 3A-3D): reduced binding affinity
CC(=O)O[C@]1(C(C)=O)CC[C@H]2[C@@H]3C=C(Cl)C4=CC(=O)[C@@H]5C[C@@H]5[C@]4(C)[C@H]3CC[C@@]21C [CPA, cyproterone acetate] | able to stimulate cell growth | antagonist activity; also recorded: antagonized the agonist activity of DHT and R1881 | had agonist activity | –
C[C@]12CC[C@H](O)CC1=CC[C@@H]1[C@@H]2CC[C@]2(C)C(=O)CC[C@@H]12 [DHEA, dehydroepiandrosterone] | – | antagonist activity; also recorded: antagonized the agonist activity of DHT and R1881 | had agonist activity | –
CC(O)(CS(=O)(=O)c1ccc(F)cc1)C(=O)Nc1ccc(C#N)c(C(F)(F)F)c1 (stereo not shown) [CASODEX] | retains its antagonism | antagonist activity | full antagonist | –
